What all share (experiment): growth of human tumour cells (NCI), 48 h
Test [1] has as its system EKVX NSCLC.
Test [2] deals with SW-620 colon.
The subject of test [3] is NCI-H226 lung.
For test [4], the system named is COLO 205 colon.
The subject of test [5] is T-47D breast.
For test [6], the system named is SF-268 CNS.
In test [7] the test system is UO-31 renal.
In test [8] the test system is MALME-3M melanoma.
The test system of test [9] is OVCAR-4 ovarian.
Test [10] has as its system MCF7 breast.
For test [11], the system named is PC-3 prostate.
Test [12] relates to SNB-19 CNS.
Test [13] deals with UACC-257 melanoma.
Test [14] deals with MDA-N.
For test [15], the system named is ACHN renal.
Test [16] deals with HOP-92 NSCLC.

SMILES strings stand for the structures.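 Dose response: 5 concentrations. Exposure: 48 h. Format: 96-well plates. Endpoint: linear interpolation; highest concentration if not reached. TGI is the concentration that stops growth completely.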 A value given as a limit tells only on which side of the number the result lay.

Take `CC(C)Nc1[nH]c(C(=O)c2ccccc2)c(N)c1C(=S)Nc1ccccc1`: the TGI was more than 100 µM in [1]; more than 100 µM in [2]; more than 100 µM in [3]; 97.5 µM in test [4]; more than 100 µM in test [5]; more than 100 µM in test [6]. Also, the TGI in [7] was more than 100 µM; in test [8] it was 43.8 µM; in test [9] it was more than 100 µM; in test [10], more than 100 µM; in [11] it was more than 100 µM; in test [12] it was more than 100 µM. Besides, the TGI was 46.7 µM in test [13], more than 100 µM in test [14], more than 100 µM in test [15] and more than 100 µM in [16].

Consider `CCC1(OC(=O)CN2CCN(CCO)CC2)C(=O)OCc2c1cc1n(c2=O)Cc2cc3ccccc3nc2-1` (stereo not drawn), for which the TGI in test [1] was 55.9 µM; in [2], 10.3 µM; in [3], 2.2 µM; in test [4], 15.5 µM; in test [5], 4.92 µM; in [6], 13.2 µM. The TGI is 0.851 µM in test [7]; 12 µM in [8]; 17 µM in test [9]; 2.18 µM in test [10]; more than 100 µM in test [11]; 28.6 µM in [12]. Also, the TGI in [13] was found to be 8.05 µM; in test [14], 13.1 µM; in test [15], 1.52 µM; in test [16], 6.96 µM.

As for `CCOC(=O)c1c(O)[nH]c(=O)c(CC)c1C`, the TGI in [1], in test [2], in [3], in [4], in [5] and in [6] was more than 100 µM in each case. In addition, the TGI in test [7], in [8], in test [9], in test [10], in [11] and in test [12] was more than 100 µM in each case. In addition, the TGI in test [13], in test [14], in test [15] and in test [16] was more than 100 µM throughout.

In the case of `O=[N+]([O-])c1ccc(Cl)cc1-n1nc(-c2ccccc2)cc1-c1ccccc1`, the TGI in [1], in test [2], in test [3], in [4], in test [5] and in test [6] was more than 100 µM throughout. Moreover, the TGI in [7], in [8], in test [9], in test [10], in test [11] and in test [12] was more than 100 µM in each case. The TGI in test [13], in test [14], in test [15] and in [16] was more than 100 µM throughout.

For the compound `COc1cc([C@@H]2c3cc4c(cc3[C@H](OC3OC5COC(C(C)C)OC5C(O)C3O)C3COC(=O)[C@@H]32)OCO4)cc(OC)c1O` (stereo partly drawn), the TGI worked out at 47.5 µM in test [1]; 22.5 µM in [2]; 24 µM in [3]; 19.9 µM in test [4]; 60.1 µM in test [5]; 35 µM in test [6]. Also, the TGI came out at 22.3 µM in [7]; 36 µM in test [8]; 37.6 µM in [9]; 16 µM in test [10]; 14.4 µM in test [11]; 30.1 µM in test [12]. Further, the TGI in test [13] was found to be 22.3 µM; in test [14], 6.48 µM; in test [15], 15.6 µM; in test [16] it was 27.5 µM.

With `Nc1nc(Cl)c(C=O)c(NCC2(CO)CC(CCc3ccccc3)C2)n1` (stereo not drawn), the TGI in test [1] was 14.1 µM; in test [2] it was 15.3 µM; in [3] it was 27.7 µM; in [4], 24.2 µM; in test [5], 31 µM; in test [6], 36.5 µM. Moreover, the TGI in test [7] came out at 2.91 µM; in [8], 30.2 µM; in test [9] it was 4.21 µM; in test [10] it was 51.8 µM; in test [11], 16.3 µM; in test [12], 27.9 µM. Further, the TGI in test [13] was 21.3 µM; in test [14] it was 18.1 µM; in [15] it was 25.8 µM; in test [16] it was 4.46 µM.

For `Cc1ccc(/C=C2\N=C(N3CCCCC3)NC2=O)cc1`, the TGI in [1], in [2], in [3], in [4], in test [5] and in [6] was more than 100 µM throughout. The TGI in test [7], in test [8], in test [9], in [10], in [11] and in test [12] was more than 100 µM in each case. In addition, the TGI in test [13], in test [14], in test [15] and in test [16] was more than 100 µM each time.

For `CSc1c(C(=O)Nc2ccc(C)cc2)c(N)nn1-c1ccccc1`, the TGI in test [1], in [2], in test [3], in test [4], in test [5] and in test [6] was more than 100 µM in each case. Also, the TGI in test [7] is more than 100 µM; in test [8] it was 75.7 µM; in test [9], more than 100 µM; in test [10] it was more than 100 µM; in test [11], more than 100 µM; in test [12], more than 100 µM. In addition, the TGI was more than 100 µM in [13], more than 100 µM in [14], more than 100 µM in test [15] and 88.1 µM in test [16].

Turning to `CSC(SC)=C1C(=O)NN=C1C`, the TGI in test [1], in test [2], in [3], in test [4], in test [5] and in test [6] was more than 100 µM each time. In addition, the TGI in test [7], in test [8], in test [9], in test [10], in test [11] and in [12] was more than 100 µM in each case. In addition, the TGI in test [13], in test [14], in test [15] and in test [16] was more than 100 µM throughout.

In the case of `COc1cc(N(CCC#N)CCC#N)ccc1/C(N=Nc1ccc(C)cc1)=N/NC(=O)c1cc(Br)ccc1O`, the TGI was 66.7 µM in test [1]; more than 100 µM in test [2]; more than 100 µM in test [3]; 29.1 µM in test [4]; 47.3 µM in test [5]; 91.4 µM in [6]. Besides, the TGI in test [7] was 60.3 µM; in test [8], more than 100 µM; in test [9], 63.1 µM; in test [10] it was more than 100 µM; in [11], 66.5 µM; in test [12] it was more than 100 µM. Besides, the TGI in test [13] is 83.8 µM; in [14], more than 100 µM; in [15], more than 100 µM; in test [16], 65.6 µM.

`CN(C)CCN1C(=O)CC[C@@]2(C)C1=CC[C@@H]1[C@@H]2CC[C@@]2(C)[C@H]1CC[C@]2(C)O`: the TGI in test [1], in test [2], in test [3], in [4], in test [5] and in test [6] was more than 100 µM each time. For the same compound, the TGI in test [7], in [8], in test [9], in test [10], in test [11] and in test [12] was more than 100 µM in each case. The TGI in test [13], in test [14], in test [15] and in [16] was more than 100 µM each time.

Take `O=C(c1ccc(Cl)cc1Cl)N(Cc1cccnc1)C(=S)N(Cc1cccnc1)C(=O)c1ccc(Cl)cc1Cl`: the TGI in test [1] came out at 30.2 µM; in test [2], 80.5 µM; in [3], 38.3 µM; in test [4], 4.09 µM; in [5], 45.7 µM; in [6], 20.4 µM. Moreover, the TGI in test [7] is 12.9 µM; in test [8] it was 36.9 µM; in test [9], 7.99 µM; in test [10], 12.3 µM; in test [11] it was 7.55 µM; in test [12], 25.1 µM. For the same compound, the TGI in test [13] is 23.5 µM; in [14], 6.76 µM; in test [15], 23.5 µM; in test [16], 12 µM.

`CC(NC1=CC(=O)c2ncccc2C1=O)C(O)c1ccccc1` (stereo not drawn): the TGI in [1] came out at 29.5 µM; in test [2] it was 19.8 µM; in test [3] it was 20.8 µM; in [4], 29.7 µM; in test [5], 56 µM; in [6], 53.4 µM. The TGI in test [7] turned out to be 17.2 µM; in test [8], 4.97 µM; in test [9], 22.3 µM; in test [10], 7.56 µM; in test [11] it was 70.5 µM; in test [12] it was 20 µM. In addition, the TGI was found to be 10.6 µM in test [13], 3 µM in test [14], 43.7 µM in [15] and 27.9 µM in [16].
